According to the supplement of paper PMC10307832:

Assays:
Experiment in all cases: relative viability (nuclei count vs DMSO), 5 days (fraction); higher = more cells survive
[1] = compound: C(C(=O)C(=O)O)Br [Bromopyruvate] + Cc1nc(NC(=O)N2CCC[C@H]2C(N)=O)sc1-c1ccnc(C(C)(C)C(F)(F)F)c1 [Alpelisib] (partner 2 µM)
In short: (§1)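 Each reported value is a median over duplicate plates. It expresses relative viability: treated-well nuclei count divided by vehicle-well nuclei count. Lung cancer cell lines in 1536-well plates were dosed by pin tool a day after seeding, alone with one drug or with a fixed anchor-drug dose plus five library-drug doses (not always all listed) in √10 steps, and nuclei were counted after 5 days.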

Bromopyruvate + Olaparib = compound: C(C(=O)C(=O)O)Br [Bromopyruvate] + O=C(c1cc(Cc2n[nH]c(=O)c3ccccc23)ccc1F)N1CCN(C(=O)C2CC2)CC1 [Olaparib] (partner 8 µM)
In short: as §1

[2] = compound: CC(O)(CS(=O)(=O)c1ccc(F)cc1)C(=O)Nc1ccc(C#N)c(C(F)(F)F)c1 [Bicalutamide] + CC(C)C[C@H](NC(=O)[C@H](Cc1ccccc1)NC(=O)c1cnccn1)B(O)O [Bortezomib] (partner 0.002 µM)
In short: as §1

[3] = compound: CC(O)(CS(=O)(=O)c1ccc(F)cc1)C(=O)Nc1ccc(C#N)c(C(F)(F)F)c1 [Bicalutamide] + C[C@]1(O)C[C@@H](c2nc(-c3ccc4ccc(-c5ccccc5)nc4c3)c3c(N)nccn32)C1 [Linsitinib] (partner 1 µM)
In short: as §1

Row | Cell Line | relative viability ([1]; first compound 1 µM) | relative viability ([1]; first compound 3.162 µM) | relative viability ([1]; first compound 10 µM) | relative viability ([1]; first compound 31.62 µM) | relative viability ([1]; first compound 100 µM) | relative viability (Bromopyruvate + Olaparib; first compound 1 µM) | relative viability (Bromopyruvate + Olaparib; first compound 3.162 µM) | relative viability (Bromopyruvate + Olaparib; first compound 10 µM) | relative viability (Bromopyruvate + Olaparib; first compound 31.62 µM) | relative viability (Bromopyruvate + Olaparib; first compound 100 µM) | relative viability ([2]; first compound 0.08 µM) | relative viability ([2]; first compound 0.253 µM) | relative viability ([2]; first compound 0.8 µM) | relative viability ([2]; first compound 2.53 µM) | relative viability ([3]; first compound 0.08 µM) | relative viability ([3]; first compound 0.253 µM) | relative viability ([3]; first compound 0.8 µM) | relative viability ([3]; first compound 2.53 µM)
1 | COR-L 105 | 0.975 | 1.34 | 1.23 | 1.02 | 0.768 | 0.771 | 0.71 | 0.642 | 0.504 | 0.429 | 0.761 | 0.87 | 0.98 | 0.501 | 0.941 | 0.93 | 0.899 | 0.815
2 | NCI-H1975 | 0.77 | 0.752 | 0.606 | 0.635 | 0.593 | 0.858 | 0.79 | 1.11 | 0.755 | 0.605 | 0.314 | 0.296 | 0.417 | 0.372 | 0.947 | 0.917 | 1.1 | 0.656
3 | Calu-6 | 1.09 | 1.02 | 1.05 | 0.952 | 0.615 | 0.579 | 0.581 | 0.686 | 0.55 | 0.417 | 1.08 | 0.857 | 1.05 | 0.922 | 0.972 | 0.999 | 1.12 | 0.98
4 | NCI-H2009 | 1.11 | 1.15 | 1.21 | 1.07 | 1.01 | 0.672 | 0.688 | 0.727 | 0.645 | 0.461 | 1.26 | 1.03 | 1.16 | 0.88 | 1.19 | 1.12 | 1.16 | 1.16
5 | SK-LU-1 | 1.09 | 1.05 | 0.939 | 0.874 | 0.86 | 0.425 | 0.416 | 0.492 | 0.367 | 0.424 | 1.33 | 1.37 | 1.89 | 1.09 | 1.24 | 1.29 | 1.17 | 0.817
6 | NCI-H2347 | 1.07 | 1.16 | 1.38 | 0.849 | 1.13 | 0.56 | 0.536 | 0.511 | 0.559 | 0.57 | 1.21 | 0.989 | 1.4 | 0.903 | 1.1 | 0.944 | 1.02 | 0.934
7 | HCC-366 | 0.494 | 0.403 | 0.503 | 0.519 | 0.41 | 0.365 | 0.323 | 0.345 | 0.321 | 0.284 | 1.04 | 1.02 | 1.43 | 1.04 | 0.659 | 0.541 | 0.905 | 0.624
8 | EMC-BAC-2 | 0.658 | 0.771 | 0.897 | 0.747 | 0.826 | 0.499 | 0.481 | 0.408 | 0.516 | 0.458 | 1.04 | 0.968 | 1.15 | 0.929 | 0.854 | 0.796 | 0.803 | 0.756
9 | NCI-H3122 | 0.841 | 0.831 | 0.859 | 0.729 | 0.718 | 0.647 | 0.663 | 0.631 | 0.586 | 0.604 | 1.03 | 1.03 | 0.988 | 1.03 | 1.01 | 1.04 | 1.04 | 1.07
10 | EPLC-272H | 1.05 | 1.17 | 0.941 | 0.806 | 1.04 | 0.783 | 0.885 | 0.971 | 0.932 | 0.699 | 0.873 | 0.666 | 0.904 | 0.894 | 1.17 | 1.13 | 1.33 | 1.16
11 | EBC-1 | 0.888 | 0.82 | 0.802 | 0.79 | 0.747 | 0.691 | 0.594 | 0.741 | 0.617 | 0.564 | 0.584 | 0.537 | 0.592 | 0.477 | 0.874 | 0.874 | 1.05 | 0.858
12 | NCI-H1915 | 1.03 | 1.05 | 1.04 | 1.12 | 1.08 | 0.261 | 0.267 | 0.242 | 0.254 | 0.22 | 0.962 | 0.944 | 1.11 | 0.909 | 1.11 | 1.13 | 1.1 | 1.03
13 | NCI-H647 | 1.12 | 1.15 | 1.46 | 1.48 | 1.2 | 0.567 | 0.541 | 0.494 | 0.585 | 0.532 | 0.973 | 0.96 | 1.4 | 0.903 | 1.2 | 1.17 | 1.48 | 0.955
14 | NCI-H441 | 0.835 | 1.01 | 0.714 | 0.658 | 0.547 | 0.604 | 0.538 | 0.643 | 0.564 | 0.602 | 0.566 |  | 0.531 | 0.398 | 0.6 |  | 0.863 | 0.404
15 | NCI-H1299 | 1.01 | 1.04 | 1.09 | 1.04 | 1.06 | 0.937 | 0.951 | 0.963 | 0.979 | 0.882 | 0.974 | 1.05 | 0.969 | 1.04 | 1.04 | 1.03 | 1.17 | 1.01
16 | NCI-H23 | 0.607 | 0.669 | 0.68 | 0.46 | 0.43 | 0.318 | 0.316 | 0.321 | 0.399 | 0.196 | 0.964 | 1.03 | 1.49 | 0.786 | 0.584 | 0.526 | 0.498 | 0.454
17 | IA-LM | 0.756 | 0.776 | 0.887 | 0.836 | 0.821 | 0.839 | 0.857 | 0.855 | 0.98 | 0.941 | 0.819 | 0.86 | 0.966 | 0.837 | 0.823 | 0.641 | 0.616 | 0.646
18 | NCI-H650 | 1.03 | 1.2 | 1.28 | 1.07 | 1.02 | 0.324 | 0.378 | 0.379 | 0.278 | 0.206 | 0.907 | 0.87 | 0.918 | 0.553 | 0.906 | 1.07 | 1.1 | 0.489
